Source: ChEMBL document CHEMBL6153110, “Peptide Double-Stapling and Arginine N-Glycosylation Triggered the Development of Therapeutic Antimicrobial Peptides Capable of Killing Drug-Resistant Bacteria in Mice” (J Med Chem, 2025)
Converted amounts (≈) assume the structure as drawn. Starred links: 1 amine or outer side, 2 acyl side, 3 side chain; linkers in the order of their positions; H or OH if unused. Positions of bridges follow the written chain, without caps; N, C: chain ends. Non-standard residues stand in square brackets, D forms with d. Residues, ends and D or L forms follow the SMILES beside them. ξ: configuration not given here. X2 = CC(=O)N[C@@H]1[C@@H](O)[C@H](O)[C@@H](CO)O[C@H]1NC(=N)NCCC[C@H](N[*:1])C(=O)[*:2]; ξαMeNle(6-ylidene) = CC(CCCC=[*:3])(N[*:1])C(=O)[*:2]; R8 = C=CCCCCCC[C@@](C)(N)C(=O)O; S5 = C=CCCC[C@](C)(N)C(=O)O; ξV = CC(C)C(N)C(=O)O

What was measured:
Klebsiella pneumoniae = experiment: Antimicrobial activity against Klebsiella pneumoniae ATCC 13883 assessed as growth inhibition measured after 8 hrs incubation by standard broth dilution assay; assay type: functional
Staphylococcus aureus = experiment: Antimicrobial activity against methicillin-resistant Staphylococcus aureus ATCC 43300 assessed as growth inhibition measured after 8 hrs incubation by standard broth dilution assay; assay type: functional
Pseudomonas aeruginosa = experiment: Antimicrobial activity against Pseudomonas aeruginosa ATCC 27853 assessed as growth inhibition measured after 8 hrs incubation by standard broth dilution assay; assay type: functional
Streptococcus pneumoniae = experiment: Antimicrobial activity against Streptococcus pneumoniae ATCC 49619 assessed as growth inhibition measured after 8 hrs incubation by standard broth dilution assay; assay type: functional
[1] = Hemolytic activity in BALB/c mouse red blood cells assessed as hemolysis incubated for 1 hrs; assay type: toxicity, cell-based, Erythrocyte; conditions: read-out: HD50

Row | SMILES | MIC (Klebsiella pneumoniae) | MIC (Staphylococcus aureus) | MIC (Pseudomonas aeruginosa) | MIC (Streptococcus pneumoniae) | HC50 at 1 h [1]
1 | CC(=O)N[C@@H]1[C@@H](O)[C@H](O)[C@@H](CO)O[C@H]1NC(=N)NCCC[C@H](NC(=O)[C@@H](NC(=O)[C@@H]1CCCN1C(=O)[C@H](CCCCN)NC(=O)[C@H](CCCCN)NC(=O)[C@H](CC(C)C)NC(=O)[C@]1(C)CCC/C=C\CCC[C@](C)(NC(=O)[C@H](CCCCN)NC(=O)[C@]2(C)CCC/C=C\CCC[C@](C)(NC(=O)[C@H](CCCNC(=N)N)NC(=O)[C@H](CCCCN)NC(=O)[C@H](CCCCN)NC(=O)[C@@H](NC(=O)[C@H](CCCNC(=N)N)NC(=O)[C@H](CCCCN)NC(=O)[C@H](CCCCN)NC(C)=O)C(C)C)C(=O)N[C@@H](Cc3ccccc3)C(=O)N[C@@H](CCCCN)C(=O)N[C@@H](CC(C)C)C(=O)N2)C(=O)N[C@@H](Cc2ccc(O)cc2)C(=O)N[C@@H](Cc2c[nH]c3ccccc23)C(=O)N[C@@H](CCCNC(=N)N)C(=O)N1)C(C)C)C(N)=O (Ac-KKRVKKR[S5]FKL[S5]K[S5]YWR[S5]LKKPV[X2]-NH2; staple (Z) 8-12, 14-18) | 2.5 µg/mL (≈ 0.729 µM) | 2.5 µg/mL (≈ 0.729 µM) | 2.6 µg/mL (≈ 0.758 µM) | 2.4 µg/mL (≈ 0.699 µM) | 82.2 µg/mL
2 | CC(=O)N[C@@H](CCCCN)C(=O)N[C@@H](CCCCN)C(=O)N[C@@H](CCCNC(=N)N)C(=O)N[C@H](C(=O)N[C@@H](Cc1c[nH]c2ccccc12)C(=O)N[C@@H](CCCCN)C(=O)N[C@@H](CCCNC(=N)N)C(=O)N[C@H](C(=O)N[C@@H](Cc1ccccc1)C(=O)N[C@@H](CCCCN)C(=O)N[C@@H](CC(C)C)C(=O)N[C@@H](CC(C)C)C(=O)N[C@@H](CCCCN)C(=O)N[C@@]1(C)CCC/C=C\CCC[C@@](C)(C(=O)N[C@@H](CC(C)C)C(=O)N[C@@H](CCCCN)C(=O)N[C@@H](CCCCN)C(=O)N2CCC[C@H]2C(=O)N[C@H](C(=O)N[C@@H](CCCNC(=N)N)C(N)=O)C(C)C)NC(=O)[C@H](CCCNC(=N)N)NC(=O)[C@H](Cc2c[nH]c3ccccc23)NC(=O)[C@H](Cc2ccc(O)cc2)NC1=O)C(C)C)C(C)C (Ac-KKRVWKRVFKLLK[S5]YWR[S5]LKKPVR-NH2; staple (Z) 14-18) | 4.9 µg/mL (≈ 1.51 µM) | 4.9 µg/mL (≈ 1.51 µM) | 2.9 µg/mL (≈ 0.893 µM) | 2.4 µg/mL (≈ 0.739 µM) | 19.2 µg/mL
3 | CC(=O)N[C@@H](CCCCN)C(=O)N[C@@H](CCCCN)C(=O)N[C@@H](CCCNC(=N)N)C(=O)N[C@H](C(=O)N[C@@H](Cc1c[nH]c2ccccc12)C(=O)N[C@@H](CCCCN)C(=O)N[C@@H](CCCNC(=N)N)C(=O)N[C@@]1(C)CCC/C=C\CCC[C@@](C)(C(=O)N[C@@H](CCCCN)C(=O)N[C@@]2(C)CCC/C=C\CCC[C@@](C)(C(=O)N[C@@H](CC(C)C)C(=O)N[C@@H](CCCCN)C(=O)N[C@@H](CCCCN)C(=O)N3CCC[C@H]3C(=O)N[C@H](C(=O)N[C@@H](CCCNC(=N)N)C(N)=O)C(C)C)NC(=O)[C@H](CCCNC(=N)N)NC(=O)[C@H](Cc3c[nH]c4ccccc34)NC(=O)[C@H](CCCCN)NC2=O)NC(=O)[C@H](CC(C)C)NC(=O)[C@H](CCCCN)NC(=O)[C@H](Cc2ccccc2)NC1=O)C(C)C (Ac-KKRVWKR[S5]FKL[S5]K[S5]KWR[S5]LKKPVR-NH2; staple (Z) 8-12, 14-18) | 38 µg/mL (≈ 11.7 µM) | 2.5 µg/mL (≈ 0.769 µM) | 2.6 µg/mL (≈ 0.8 µM) | 4.7 µg/mL (≈ 1.45 µM) | 88.4 µg/mL
4 | CC(=O)N[C@@H](CCCCN)C(=O)N[C@@H](CCCCN)C(=O)N[C@@H](CCCNC(=N)N)C(=O)N[C@H](C(=O)N[C@@H](Cc1c[nH]c2ccccc12)C(=O)N[C@@H](CCCCN)C(=O)N[C@@H](CCCNC(=N)N)C(=O)N[C@@]1(C)CCC/C=C\CCC[C@@](C)(C(=O)N[C@@H](CCCCN)C(=O)N[C@@]2(C)CCC/C=C\CCC[C@@](C)(C(=O)N[C@@H](CC(C)C)C(=O)N[C@@H](CCCCN)C(=O)N[C@@H](CCCCN)C(=O)N3CCC[C@H]3C(=O)N[C@H](C(=O)N[C@@H](CCCNC(=N)N)C(N)=O)C(C)C)NC(=O)[C@H](CCCNC(=N)N)NC(=O)[C@H](CCCCN)NC(=O)[C@H](Cc3ccc(O)cc3)NC2=O)NC(=O)[C@H](CC(C)C)NC(=O)[C@H](CCCCN)NC(=O)[C@H](Cc2ccccc2)NC1=O)C(C)C (Ac-KKRVWKR[S5]FKL[S5]K[S5]YKR[S5]LKKPVR-NH2; staple (Z) 8-12, 14-18) | 2.5 µg/mL (≈ 0.774 µM) | 2.5 µg/mL (≈ 0.774 µM) | 2.6 µg/mL (≈ 0.805 µM) | 4.7 µg/mL (≈ 1.46 µM) | 38.7 µg/mL
5 | CC(=O)N[C@@H](CCCCN)C(=O)N[C@@H](CCCCN)C(=O)N[C@@H](CCCNC(=N)N)C(=O)N[C@H](C(=O)N[C@@H](Cc1c[nH]c2ccccc12)C(=O)N[C@@H](CCCCN)C(=O)N[C@@H](CCCNC(=N)N)C(=O)N[C@@]1(C)CCC/C=C\CCC[C@@](C)(C(=O)N[C@@H](CCCCN)C(=O)N[C@@]2(C)CCC/C=C\CCC[C@@](C)(C(=O)N[C@@H](CC(C)C)C(=O)N[C@@H](CCCCN)C(=O)N[C@@H](CCCCN)C(=O)N3CCC[C@H]3C(=O)N[C@H](C(=O)N[C@@H](CCCNC(=N)N)C(N)=O)C(C)C)NC(=O)[C@H](CCCNC(=N)N)NC(=O)[C@H](Cc3c[nH]c4ccccc34)NC(=O)[C@H](Cc3ccc(O)cc3)NC2=O)NC(=O)[C@H](CC(C)C)NC(=O)[C@H](CCCCN)NC(=O)[C@H](Cc2ccccc2)NC1=O)C(C)C (Ac-KKRVWKR[S5]FKL[S5]K[S5]YWR[S5]LKKPVR-NH2; staple (Z) 8-12, 14-18) | 4.6 µg/mL (≈ 1.4 µM) | 4.9 µg/mL (≈ 1.49 µM) | 5 µg/mL (≈ 1.52 µM) | 2.4 µg/mL (≈ 0.73 µM) | 15.3 µg/mL
6 | CC(=O)N[C@@H](CCCCN)C(=O)N[C@@H](CCCCN)C(=O)N[C@@H](CCCNC(=N)N)C(=O)N[C@H](C(=O)N[C@]1(C)CCCCCC/C=C\CCC[C@@](C)(C(=O)N[C@@H](CCCCN)C(=O)N[C@@]2(C)CCC/C=C\CCCC(C)(C(=O)N[C@@H](CC(C)C)C(=O)N[C@@H](CCCCN)C(=O)N[C@@H](CCCCN)C(=O)N3CCC[C@H]3C(=O)N[C@H](C(=O)N[C@@H](CCCNC(=N)N)C(N)=O)C(C)C)NC(=O)[C@H](CCCNC(=N)N)NC(=O)[C@H](Cc3c[nH]c4ccccc34)NC(=O)[C@H](Cc3ccc(O)cc3)NC2=O)NC(=O)[C@H](CC(C)C)NC(=O)[C@H](CCCCN)NC(=O)[C@H](Cc2ccccc2)NC(=O)C(C(C)C)NC(=O)[C@H](CCCNC(=N)N)NC(=O)[C@H](CCCCN)NC1=O)C(C)C (stereo not given in full) (Ac-KKRV[R8]KR[ξV]FKL[S5]K[S5]YWR[ξαMeNle(6-ylidene)]LKKPVR-NH2; staple (Z) 5-12, 14-18) | 4.9 µg/mL (≈ 1.51 µM) | 4.9 µg/mL (≈ 1.51 µM) | 5 µg/mL (≈ 1.54 µM) | 2.4 µg/mL (≈ 0.74 µM) | 12.7 µg/mL
7 | CC(=O)N[C@@H](CCCCN)C(=O)N[C@@H](CCCCN)C(=O)N[C@@H](CCCNC(=N)N)C(=O)N[C@H](C(=O)N[C@@]1(C)CCC/C=C\CCC[C@@](C)(C(=O)N[C@@H](CCCCN)C(=O)N[C@@H](CC(C)C)C(=O)N[C@@H](CC(C)C)C(=O)N[C@@H](CCCCN)C(=O)N[C@@]2(C)CCC/C=C\CCC[C@@](C)(C(=O)N[C@@H](CC(C)C)C(=O)N[C@@H](CCCCN)C(=O)N[C@@H](CCCCN)C(=O)N3CCC[C@H]3C(=O)N[C@H](C(=O)N[C@@H](CCCNC(=N)N)C(N)=O)C(C)C)NC(=O)[C@H](CCCNC(=N)N)NC(=O)[C@H](Cc3c[nH]c4ccccc34)NC(=O)[C@H](Cc3ccc(O)cc3)NC2=O)NC(=O)[C@H](C(C)C)NC(=O)[C@H](CCCNC(=N)N)NC(=O)[C@H](CCCCN)NC1=O)C(C)C (Ac-KKRV[S5]KRV[S5]KLLK[S5]YWR[S5]LKKPVR-NH2; staple (Z) 5-9, 14-18) | 4.9 µg/mL (≈ 1.55 µM) | 4.9 µg/mL (≈ 1.55 µM) | 5 µg/mL (≈ 1.58 µM) | 4.7 µg/mL (≈ 1.48 µM) | 13.2 µg/mL
8 | CC(=O)N[C@@H](CCCCN)C(=O)N[C@@H](CCCCN)C(=O)N[C@@H](CCCNC(=N)N)C(=O)N[C@@]1(C)CCC/C=C\CCC[C@@](C)(C(=O)N[C@@H](Cc2ccccc2)C(=O)N[C@@H](CCCCN)C(=O)N[C@@H](CC(C)C)C(=O)N[C@@H](CC(C)C)C(=O)N[C@@H](CCCCN)C(=O)N[C@@]2(C)CCC/C=C\CCC[C@@](C)(C(=O)N[C@@H](CC(C)C)C(=O)N[C@@H](CCCCN)C(=O)N[C@@H](CCCCN)C(=O)N3CCC[C@H]3C(=O)N[C@H](C(=O)N[C@@H](CCCNC(=N)N)C(N)=O)C(C)C)NC(=O)[C@H](CCCNC(=N)N)NC(=O)[C@H](Cc3c[nH]c4ccccc34)NC(=O)[C@H](Cc3ccc(O)cc3)NC2=O)NC(=O)[C@H](CCCNC(=N)N)NC(=O)[C@H](CCCCN)NC(=O)[C@H](Cc2c[nH]c3ccccc23)NC1=O (Ac-KKR[S5]WKR[S5]FKLLK[S5]YWR[S5]LKKPVR-NH2; staple (Z) 4-8, 14-18) | 4.9 µg/mL (≈ 1.48 µM) | 4.9 µg/mL (≈ 1.48 µM) | 5 µg/mL (≈ 1.52 µM) | 4.7 µg/mL (≈ 1.42 µM) | 10.5 µg/mL
9 | CC(=O)N[C@@H](CC(C)C)C(=O)N[C@@H](CCCCN)C(=O)N[C@@H](CCCNC(=N)N)C(=O)N[C@@H](CCCCN)C(=O)N[C@@H](Cc1c[nH]c2ccccc12)C(=O)N[C@@H](CCCCN)C(=O)N[C@@H](CCCNC(=N)N)C(=O)N[C@H](C(=O)N[C@@H](Cc1ccccc1)C(=O)N[C@@H](CCCCN)C(=O)N[C@@H](CC(C)C)C(=O)N[C@@H](CC(C)C)C(=O)N[C@@H](CCCCN)C(=O)N[C@@]1(C)CCC/C=C\CCC[C@@](C)(C(=O)N[C@@H](CC(C)C)C(=O)N[C@@H](CCCCN)C(=O)N[C@@H](CCCCN)C(=O)N2CCC[C@H]2C(=O)N[C@H](C(=O)N[C@@H](CCCNC(=N)N)C(N)=O)C(C)C)NC(=O)[C@H](CCCNC(=N)N)NC(=O)[C@H](Cc2c[nH]c3ccccc23)NC(=O)[C@H](Cc2ccc(O)cc2)NC1=O)C(C)C (Ac-LKRKWKRVFKLLK[S5]YWR[S5]LKKPVR-NH2; staple (Z) 14-18) | 10.1 µg/mL (≈ 3.1 µM) | 4.9 µg/mL (≈ 1.5 µM) | 5 µg/mL (≈ 1.53 µM) | 2.4 µg/mL (≈ 0.736 µM) | 9.9 µg/mL
